Test results as given in the supplement of paper PMC10307832.

Experiments:
Test in all cases: relative viability (nuclei count vs DMSO), 5 days (fraction); higher = more cells survive
TPCA-1 + Luminespib = compound: C1=CC(=CC=C1C2=CC(=C(S2)NC(=O)N)C(=O)N)F [TPCA-1] + CCNC(=O)c1noc(-c2cc(C(C)C)c(O)cc2O)c1-c1ccc(CN2CCOCC2)cc1 [Luminespib] (partner 0.01 µM)
How it was run: (§1)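 The day after seeding in 1536-well plates, lung cancer cell lines were treated by pin tool with a single drug, or with a fixed anchor-drug dose together with five library-drug doses (not always all listed) in √10 steps. After 5 days, a combined fix-and-stain solution (final 0.05% Triton X-100, 1% formaldehyde, 1 ug/ml Hoechst) was added. Nuclei counted on 4× images gave relative viability as treated counts over vehicle counts, reported as the median of duplicate plates.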

Lestaurtinib + AZD7762 = compound: C[C@]12O[C@H](C[C@]1(O)CO)n1c3ccccc3c3c4c(c5c6ccccc6n2c5c31)CNC4=O [Lestaurtinib] + NC(=O)Nc1cc(-c2cccc(F)c2)sc1C(=O)N[C@H]1CCCNC1 [AZD7762] (partner 0.2 µM)
How it was run: as §1

[1] = compound: C1/C(=C\C2=CC=CS2)/C(=O)/C(=C/C3=CC=CS3)/C1 + COc1cc2c(Oc3ccc(NC(=O)C4(C(=O)Nc5ccc(F)cc5)CC4)cc3F)ccnc2cc1OCCCN1CCOCC1 [Foretinib] (partner 0.25 µM)
How it was run: as §1

TPCA-1 + Foretinib = compound: C1=CC(=CC=C1C2=CC(=C(S2)NC(=O)N)C(=O)N)F [TPCA-1] + COc1cc2c(Oc3ccc(NC(=O)C4(C(=O)Nc5ccc(F)cc5)CC4)cc3F)ccnc2cc1OCCCN1CCOCC1 [Foretinib] (partner 0.25 µM)
How it was run: as §1

| Cell Line | relative viability (TPCA-1 + Luminespib; first compound 0.04 µM) | relative viability (TPCA-1 + Luminespib; first compound 0.1265 µM) | relative viability (TPCA-1 + Luminespib; first compound 0.4 µM) | relative viability (TPCA-1 + Luminespib; first compound 1.265 µM) | relative viability (TPCA-1 + Luminespib; first compound 4 µM) | relative viability (Lestaurtinib + AZD7762; first compound 0.005 µM) | relative viability (Lestaurtinib + AZD7762; first compound 0.01581 µM) | relative viability (Lestaurtinib + AZD7762; first compound 0.05 µM) | relative viability (Lestaurtinib + AZD7762; first compound 0.1581 µM) | relative viability (Lestaurtinib + AZD7762; first compound 0.5 µM) | relative viability ([1]; first compound 0.2 µM) | relative viability ([1]; first compound 0.6325 µM) | relative viability ([1]; first compound 2 µM) | relative viability ([1]; first compound 6.325 µM) | relative viability ([1]; first compound 20 µM) | relative viability (TPCA-1 + Foretinib; first compound 0.04 µM) | relative viability (TPCA-1 + Foretinib; first compound 0.1265 µM) | relative viability (TPCA-1 + Foretinib; first compound 0.4 µM) | relative viability (TPCA-1 + Foretinib; first compound 1.265 µM) | relative viability (TPCA-1 + Foretinib; first compound 4 µM) |
| --- | --- | --- | --- | --- | --- | --- | --- | --- | --- | --- | --- | --- | --- | --- | --- | --- | --- | --- | --- | --- |
| NCI-H2126 | 0.94 | 0.947 | 0.984 | 0.797 | 0.676 | 1.04 | 1.01 | 0.877 | 0.988 | 0.813 | 1.38 | 0.985 | 1.3 | 1.08 | 1.08 | 1.25 | 0.721 | 1.16 | 1.06 | 1 |
| NCI-H1944 | 0.872 | 0.663 | 0.71 | 0.626 | 0.513 | 0.609 | 0.514 | 0.623 | 0.487 | 0.228 | 0.918 | 0.828 | 0.89 | 0.844 | 0.859 | 1.04 | 0.821 | 0.869 | 0.847 | 0.488 |
| NCI-H2342 | 0.921 | 0.66 | 0.819 | 0.754 | 0.694 | 0.473 | 0.51 | 0.469 | 0.583 | 0.407 | 1.08 | 1.28 | 1.17 | 0.989 | 1.1 | 1.03 | 0.998 | 1.15 | 0.992 | 0.962 |
| NCI-H358 | 0.286 | 0.366 | 0.279 | 0.266 | 0.125 | 0.485 | 0.413 | 0.432 | 0.298 | 0.253 | 0.668 | 0.742 | 0.761 |  | 0.631 | 0.811 | 0.729 | 0.845 | 0.517 | 0.227 |
| NCI-H1734 | 0.192 | 0.201 | 0.221 | 0.19 | 0.162 | 0.502 | 0.512 | 0.447 | 0.326 | 0.18 | 0.805 | 0.939 | 0.92 | 0.797 | 0.818 | 0.897 | 0.742 | 0.917 | 0.818 | 0.732 |
| A-427 | 1.01 | 0.873 | 0.935 | 0.902 | 0.637 | 0.712 | 0.755 | 0.645 | 0.433 | 0.215 | 1.04 | 1.01 | 1.06 | 0.992 | 1.16 | 1.01 | 1.05 | 1.05 | 0.921 | 0.695 |
| RERF-LC-KJ | 1.3 | 1.25 | 1.26 | 1.14 | 0.852 | 1.1 | 1.16 | 0.729 | 0.984 | 0.61 | 0.932 | 0.929 | 0.866 | 0.985 | 0.808 | 0.904 | 0.997 | 0.883 | 0.836 | 0.774 |
| NCI-H727 | 0.531 | 0.453 | 0.439 | 0.487 | 0.432 | 0.564 | 0.633 | 0.522 |  | 0.452 | 0.907 | 0.802 | 1.1 | 0.815 | 0.96 | 1.01 | 0.922 | 0.738 | 0.788 | 0.829 |
| LCLC-97TM1 | 0.877 | 0.614 | 0.71 | 0.541 | 0.482 | 0.167 | 0.279 | 0.166 | 0.175 | 0.114 | 0.965 | 0.97 | 0.995 | 0.797 | 0.943 | 1.11 | 0.877 | 0.94 | 0.633 | 0.587 |
| BEN | 0.329 | 0.358 | 0.405 | 0.492 | 0.191 | 0.674 | 0.818 | 0.634 | 0.625 | 0.341 | 0.7 | 0.646 | 0.78 | 0.745 | 0.655 | 0.654 | 0.549 | 0.671 | 0.679 | 0.303 |
| LC-2-ad | 1.13 | 1.01 | 0.826 | 0.908 | 0.663 | 0.892 | 0.908 | 0.558 | 0.409 | 0.225 | 0.971 | 0.941 | 0.99 | 0.817 | 0.89 | 1.06 | 0.88 | 0.818 | 0.845 | 0.552 |
| ABC-1 | 1.24 | 0.477 | 0.34 | 0.665 | 0.47 | 0.59 | 1.09 | 0.692 | 0.76 | 0.593 | 0.984 | 0.991 | 1.1 | 0.617 | 1.2 | 1.28 | 1.11 | 1.27 | 0.964 | 0.778 |
| NCI-H647 | 0.149 | 0.192 | 0.157 | 0.102 | 0.134 | 0.307 | 0.756 | 0.275 | 0.165 | 0.0697 | 1.21 | 1.22 | 1.11 | 0.948 | 1.21 | 1.2 | 1.14 | 1.11 | 1.16 | 0.782 |
| NCI-H1755 | 0.596 | 0.408 | 0.357 | 0.35 | 0.418 | 0.437 | 0.401 | 0.492 | 0.344 | 0.25 | 0.931 | 0.959 | 1.01 | 0.817 | 0.928 | 0.914 | 0.895 | 0.923 | 0.832 | 0.669 |
| EPLC-272H | 0.265 | 0.262 | 0.443 | 0.38 | 0.207 | 0.153 | 0.219 | 0.119 | 0.225 | 0.27 | 0.602 | 0.776 | 0.657 | 0.594 | 0.601 | 0.747 | 0.643 | 0.815 | 0.456 | 0.309 |
| NCI-H1792 | 0.429 | 0.237 | 0.446 | 0.501 | 0.367 | 0.758 | 0.669 | 0.556 | 0.387 | 0.174 |  |  |  |  |  |  |  |  |  |  |
| NCI-H522 | 1.13 | 0.946 | 1.22 | 1.15 | 0.84 | 0.944 | 0.778 | 0.842 | 0.744 | 0.479 |  |  |  |  |  |  |  |  |  |  |
